This passage reports IC50 results from patent publication EP1157985A1 (G.D. SEARLE & CO., priority 1996, dated 1997).

Molecules are shown by their SMILES. Where a name gives a salt, the structure may show the parent alone. Read-outs that look alike come from different tables or passages of the source.

The target of assay [1] is T1, Human vitronectin receptor (αvβ3) (Homo sapiens, UniProt P05106+P06756).
T1 construct: Human vitronectin receptor (αvβ3) was purified from human placenta; from tissue; host or cells: human placenta
Kind of assay: Vitronectin adhesion assay (solid phase receptor assay, competition with biotinylated vitronectin). In kind it is binding.

The target of assay [2] is T2, Human fibrinogen receptor (αIIbβ3) (Homo sapiens, UniProt P05106+P08514).
T2 construct: Human fibrinogen receptor (αIIbβ3) was purified from outdated platelets; from tissue; host or cells: outdated (human) platelets
As to the kind of experiment: Purified IIb/IIIa receptor assay (solid phase receptor assay, competition with biotinylated vitronectin). The format is binding. The settings on record: purified receptor from outdated platelets; 1 nM biotinylated vitronectin; highest concentration tested 1.0 x 10^-4 M. In outline: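 Platelet-derived αIIbβ3 coated at 1.0 µg/mL overnight at 4 °C in TBS with 1 mM Ca, Mg, Mn, pH 7.4, BSA-blocked; compounds competed with 1 nM biotinylated vitronectin (final; top compound 1.0 × 10^-4 M) for 2 h at room temperature. Bound ligand detected via HRP anti-biotin, A450; normalized to maximum binding, four-parameter fit.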

The mark [3] stands for this setting: purified receptor from human placenta; 1 nM biotinylated vitronectin; highest concentration tested 1.0 x 10^-4 M; read-out: AvB3 IC50.
The mark [4] stands for this setting: read-out: AvB3 IC50; purified receptor from human placenta; 1 nM biotinylated vitronectin; highest concentration tested 1.0 x 10^-4 M.

As usually defined, the IC50 is the concentration that inhibits the measured activity by half. `O=C(Nc1ccc(CC(NS(=O)(=O)c2ccccc2)C(=O)O)cc1)c1cccc(NC2=NCCN2)c1` (stereo not drawn) [Example 112, 4-[[[3-[(4,5-dihydro-1H-imidazol-2-yl)amino]phenyl]-carbonyl]amino-N-(phenylsulfonyl)phenylalanine, trifluoroacetate salt]: the IC50 in assay [1] (setting [3]) worked out at 0.3 nM; in assay [2], 13 nM.
For the compound `COc1cc(NC(=O)c2cccc(NC3=NCCCN3)c2)ccc1C[C@H](NC(=O)OC(C)C)C(=O)O` [Example 114, 2-methoxy-N-[(1-methylethoxy)carbonyl]-4-[[[3-[(1,4,5,6-tetrahydropyrimidin-2-yl)amino]-phenyl]-carbonyl]amino]phenylalanine, trifluoroacetate salt], the IC50 in assay [1] (setting [3]) is 0.2 nM; in assay [2], 1000 nM.
Consider `COc1cc(NC(=O)c2cccc(NC(=N)N)c2)ccc1CCC(=O)O` [Example 115, 4-[[[3-(aminoiminomethyl)amino]phenyl]-carbonyl]amino]-2-methoxybenzenepropanoic acid, trifluoroacetate salt], for which the results for the IC50 in assay [1] (setting [3]) and in assay [2] were 24 nM and 173 nM, respectively.
For the compound `COc1cc(NC(=O)c2cccc(NC3=NCCCN3)c2)ccc1CCC(=O)O` [Example 116, 2-methoxy-4-[[[3-[(1,4,5,6-tetrahydropyrimidin-2-yl)amino]phenyl]carbonyl]amino]benzenepropanoic acid, trifluoroacetate salt], the IC50 in assay [1] (setting [3]) stood at 6 nM; in assay [2], 3180 nM.
The matching figures for `CN(C)c1cc(NC(=O)c2cccc(NC(=N)N)c2)ccc1CCC(=O)O` [Example 117, 4-[[[3-[(aminoiminomethyl)amino]phenyl]carbonyl]-amino]-2-(dimethylamino)benzenepropanoic acid, bis(trifluoroacetate) salt]: 129 nM and 452 nM.
In the case of `COc1cc(NC(=O)c2cccc(NC3=NCCCN3)c2)ccc1OCC(=O)O` [Example 119, [2-methoxy-4-[[[3-[(1,4,5,6-tetrahydropyrimidin-2-yl]-amino]phenyl]carbonyl]amino]phenoxy]acetic acid, trifluoroacetate salt], the IC50 in assay [1] (setting [3]) turned out to be 0.4 nM; in assay [2], 772 nM.
The matching figures for `N=C(N)Nc1cccc(C(=O)Nc2ccc(CC(C(=O)O)C(=O)O)cc2)c1` [Example 120, [[4-[[[3-[(aminoiminomethyl)amino]phenyl]carbonyl]-amino]phenyl]methyl]-1,3-propanoic acid, trifluoroacetic salt]: 14 nM and 384 nM.
As for `Cc1cc(C)c(S(=O)(=O)NC(Cc2ccc(NC(=O)c3cccc(NC(=N)N)c3)cc2)C(=O)O)c(C)c1` (stereo not drawn) [Example 121, trifluoroacetate salt], the figures for the IC50 in assay [1] (setting [4]) and in assay [2] were 1 nM and 2 nM, respectively.
`N=C(N)Nc1cccc(C(=O)Nc2ccc(CC(NS(=O)(=O)c3cc(Cl)cc(Cl)c3)C(=O)O)cc2)c1` (stereo not drawn) [Example 122, [4-[[[3-[(aminoiminomethyl)amino]phenyl]carbonyl]-amino]-N-[(3,5-dichlorophenyl)sulfonyl]phenyl-alanine, trifluoroacetate salt]: the IC50 amounted to 7 nM in assay [1] (setting [3]) and 50 nM in assay [2].
For `N=C(N)Nc1cccc(C(=O)Nc2ccc(CC(NC(=O)N3CCOCC3)C(=O)O)cc2)c1` (stereo not drawn) [Example 125, 4-[[[3-[(aminoiminomethyl)amino]phenyl]carbonyl]-amino]-N-[(4-morpholinyl)carbonyl]phenylalanine, bis(trifluoroacetate) salt, monohydrate], the IC50 came out at 7 nM in assay [1] (setting [3]) and 260 nM in assay [2].
The matching figures for `N=C(N)Nc1cccc(C(=O)Nc2ccc(CC(NC(=O)N3CCCCC3)C(=O)O)cc2)c1` (stereo not drawn) [Example 126, 4-[[[3-[(aminoiminomethyl)amino]phenyl]carbonyl]-amino]-N-[(1-pipridinyl)carbonyl]phenyl-alanine, trifluoroacetate salt]: 2 nM and 36 nM.
`CC(C)OC(=O)NC(Cc1ccc(NC(=O)c2cccc(NC(=N)N)c2)c(Cl)c1)C(=O)O` (stereo not drawn) [Example 127, trifluoroacetate salt]: the figures for the IC50 in assay [1] (setting [4]) and in assay [2] were 0.6 nM and 22 nM, respectively.
